Test results published in US10023592B2, “Bromodomain inhibitors” (Celgene Quanticel Research, Inc., priority 2013, dated 2018).
pIC50: −log10 of the molar value.

Columns and labels:
[1] = test system: NCI-H460, human non-small cell lung cancer cells; test: Cell-MTS proliferation assay, NCI-H460; type: cell-based; conditions: 168 hr
Procedure, shortened: (§1)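 Seeded for ~90% confluence at 7 days (Raji 15,000, HL-60 5,000, NCI-H460 3,000 cells/well); compound added 24 h post-plating as 11-point dilution, 100 μM to 2.0 nM final.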

[2] = test system: Raji, human Burkitts lymphoma cells; test: Cell-MTS proliferation assay, Raji; type: cell-based; conditions: 168 hr
Procedure, shortened: as §1

[3] = test system: HL-60, human proleukemia cells; test: Cell-MTS proliferation assay, HL-60; type: cell-based; conditions: 168 hr
Procedure, shortened: as §1

[4] = target: BRD4(BD1) (Homo sapiens (Human), UniProt O60885); test: In vitro enzyme inhibition assay (BRD4 AlphaScreen); type: binding
Procedure, shortened: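 His-tagged BRD4 tested by AlphaScreen for binding of biotinylated H4K5/8/12/16-tetraacetyl peptide. After 20 min at room temperature, streptavidin donor and nickel chelate acceptor beads added (5 μg/mL final each). IC50 determined.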

[5] = Homo sapiens, NCI-H460, Cell-MTS proliferation
[6] = Homo sapiens, Raji, Cell-MTS proliferation
[7] = Homo sapiens, HL-60, Cell-MTS proliferation
[8] = in vitro enzyme inhibition assay
[9] = Homo sapiens, Cell-MTS proliferation, NCI-H460 cells
[10] = Homo sapiens, Cell-MTS proliferation, Raji cells
[11] = Homo sapiens, Cell-MTS proliferation, HL-60 cells
[12] = Homo sapiens, NCI-H460, Cell-MTS, class symbols A/B/C
[13] = Homo sapiens, Raji, Cell-MTS, class symbols A/B/C
[14] = Homo sapiens, HL-60, Cell-MTS, class symbols A/B/C

SMILES	pIC50 [1, 5]	pIC50 [2, 6]	pIC50 [3, 7]	pIC50 [4, 8]	further results
Cc1cc(-c2cc(OCCC3CC3)cc(S(C)(=O)=O)c2)cn(C)c1=O [Example 327, 5-[3-(2-cyclopropylethoxy)-5-methylsulfonylphenyl]-1,3-dimethylpyridin-2-one]	< 5.30	5.30 to 6.30	5.30 to 6.30	> 6.30	
Cn1cc(-c2cc(S(C)(=O)=O)ccc2O[C@H]2CC[C@H](O)CC2)c2cc(F)ccc2c1=O [Example 186, 6-fluoro-4-[2-(trans-4-hydroxycyclohexyl)oxy-5-methylsulfonylphenyl]-2-methylisoquinolin-1-one]	< 5.30	> 6.30	> 6.30	> 6.30	
Cn1cc(-c2cc(S(C)(=O)=O)ccc2O[C@H]2CC[C@H](O)CC2)c2ccccc2c1=O [Example 180, 4-[2-(trans-4-hydroxycyclohexyl)oxy-5-methylsulfonylphenyl]-2-methylisoquinolin-1-one]	< 5.30	> 6.30	> 6.30	> 6.30	
Cn1cc(-c2cc(NS(C)(=O)=O)ccc2Oc2ccc(F)cc2F)c2occc2c1=O [Example 380, N-[4-(2,4-difluorophenoxy)-3-(5-methyl-4-oxofuro[3,2-c]pyridin-7-yl)phenyl] methanesulfonamide]				> 6.30	pIC50 [1, 9]: < 5.30; pIC50 [2, 10]: > 6.30; pIC50 [3, 11]: > 6.30
COc1ccc(-c2cn(C)c(=O)c3cnccc23)cc1S(=O)(=O)NCc1ccccc1 [Example 54, N-benzyl-2-methoxy-5-(2-methyl-1-oxo-2,7-naphthyridin-4-yl) benzenesulfonamide]					pIC50 ([1]; Cell-MTS, class symbols A/B/C): < 5.30; pIC50 ([2]; Cell-MTS, class symbols A/B/C): < 5.30; pIC50 ([3]; Cell-MTS, class symbols A/B/C): 5.30 to 6.30; pIC50 ([4]; class symbols A/B/C): < 5.30
Cn1cc(-c2nc(S(C)(=O)=O)ccc2OCC2CC2)c2ccoc2c1=O [Example 259, 4-[3-(cyclopropylmethoxy)-6-methylsulfonylpyridin-2-yl]-6-methylfuro[2,3-c]pyridin-7-one]	< 5.30	5.30 to 6.30	> 6.30	> 6.30	
Cc1cc(-c2cc(S(C)(=O)=O)ccc2OC2CCOCC2)cn(C)c1=O [Example 420, 1,3-dimethyl-5-[5-methylsulfonyl-2-(oxan-4-yloxy)phenyl]pyridin-2-one]				> 6.30	pIC50 [1, 9]: < 5.30; pIC50 [2, 10]: 5.30 to 6.30; pIC50 [3, 11]: > 6.30
Cn1cc(-c2ccc3c(=O)n(C)cc(-c4nc(NS(C)(=O)=O)ncc4OCC4CC4)c3c2)cn1 [Example 154, N-[5-(cyclopropylmethoxy)-4-[2-methyl-6-(1-methylpyrazol-4-yl)-1-oxoisoquinolin-4-yl]pyrimidin-2-yl]methanesulfonamide]	< 5.30	> 6.30	> 6.30	> 6.30	
CCS(=O)(=O)Nc1cnc(OCC2CC2)c(-c2cn(C)c(=O)c3ccccc23)c1 [Example 320, N-[6-(cyclopropylmethoxy)-5-(2-methyl-1-oxoisoquinolin-4-yl)pyridin-3-yl]ethanesulfonamide]	< 5.30	> 6.30	> 6.30	> 6.30	
Cn1cc(-c2ccc3c(=O)n(C)cc(-c4cc(S(C)(=O)=O)ccc4OCC4CC4)c3c2)cn1 [Example 46, 4-[2-(cyclopropylmethoxy)-5-methylsulfonylphenyl]-2-methyl-6-(1-methylpyrazol-4-yl)isoquinolin-1-one]					pIC50 [1, 12]: < 5.30; pIC50 [2, 13]: > 6.30; pIC50 [3, 14]: > 6.30; pIC50 ([4]; class symbols A/B/C): > 6.30
CCS(=O)(=O)c1ccc(NCC2CC2)c(-c2cc(N(C)C)c(=O)n(C)c2)c1 [Example 440, 5-[2-(cyclopropylmethylamino)-5-ethylsulfonylphenyl]-3-(dimethylamino)-1-methylpyridin-2-one]				> 6.30	pIC50 [1, 9]: < 5.30; pIC50 [2, 10]: > 6.30; pIC50 [3, 11]: > 6.30
Cn1cc(-c2cc(S(C)(=O)=O)ccc2NC2CCOC2)c2ccccc2c1=O (stereo not drawn) [Example 190, 2-methyl-4-[5-methylsulfonyl-2-(oxolan-3-ylamino)phenyl]isoquinolin-1-one]	< 5.30	5.30 to 6.30	5.30 to 6.30	> 6.30	
CCS(=O)(=O)Nc1ccc(OC2CCOCC2)c(-c2cc(C)c(=O)n(C)c2)c1 [Example 441, N-[3-(1,5-dimethyl-6-oxopyridin-3-yl)-4-(oxan-4-yloxy)phenyl]ethanesulfonamide]				> 6.30	pIC50 [1, 9]: < 5.30; pIC50 [2, 10]: > 6.30; pIC50 [3, 11]: > 6.30
Cn1cc(-c2cc(NS(C)(=O)=O)ccc2Oc2ccc(F)cc2F)cc(F)c1=O [Example 271, N-[4-(2,4-difluorophenoxy)-3-(5-fluoro-1-methyl-6-oxopyridin-3-yl)phenyl]methanesulfonamide]	< 5.30	> 6.30	> 6.30	> 6.30	
CCS(=O)(=O)c1ccc(NCC2CC2)c(-c2cn(C)c(=O)c3ccccc23)c1 [Example 193, 4-[2-(cyclopropylmethylamino)-5-ethylsulfonylphenyl]-2-methylisoquinolin-1-one]	< 5.30	> 6.30	> 6.30	> 6.30	
Cc1cc(-c2nc(NS(C)(=O)=O)ncc2Oc2ccc(F)cc2F)cn(C)c1=O [Example 166, N-[5-(2,4-difluorophenoxy)-4-(1,5-dimethyl-6-oxopyridin-3-yl)pyrimidin-2-yl]methanesulfonamide]	< 5.30	> 6.30	> 6.30	> 6.30	
CCOc1ccc(S(=O)(=O)CC)cc1-c1cn(C)c(=O)c2cnc(-c3cnn(C)c3)nc12 [Example 227, 8-(2-ethoxy-5-ethylsulfonylphenyl)-6-methyl-2-(1-methylpyrazol-4-yl)pyrido[4,3-d]pyrimidin-5-one]	< 5.30	5.30 to 6.30	> 6.30	> 6.30	
CC(=O)Nc1ccc(S(C)(=O)=O)cc1-c1cn(C)c(=O)c2ccccc12 [Example 222, N-[2-(2-methyl-1-oxoisoquinolin-4-yl)-4-methylsulfonylphenyl]acetamide]	< 5.30	< 5.30	< 5.30	< 5.30	
CCS(=O)(=O)Nc1ccc(Oc2ccc(F)cc2F)c(-c2cc(OCC(F)(F)F)c(=O)n(C)c2)c1 [Example 290, N-[4-(2,4-difluorophenoxy)-3-[1-methyl-6-oxo-5-(2,2,2-trifluoroethoxy)pyridin-3-yl]phenyl]ethanesulfonamide]	< 5.30	> 6.30	> 6.30	> 6.30	
Cn1cc(-c2cc(S(C)(=O)=O)ncc2OCC2CC2)c2ccccc2c1=O [Example 200, 4-[5-(cyclopropylmethoxy)-2-methylsulfonylpyridin-4-yl]-2-methylisoquinolin-1-one]	< 5.30	5.30 to 6.30	> 6.30	> 6.30	
Cc1nc2c(=O)n(C)cc(-c3cc(S(C)(=O)=O)ccc3OCC3CC3)c2o1 [Example 238, 7-[2-(cyclopropylmethoxy)-5-methylsulfonylphenyl]-2,5-dimethyl-[1,3]oxazolo[4,5-c]pyridin-4-one]	< 5.30	5.30 to 6.30	> 6.30	> 6.30	
CCS(=O)(=O)Cc1ccc(Oc2ccc(F)cc2F)c(-c2cc(OC(F)F)c(=O)n(C)c2)c1 [Example 291, 3-(difluoromethoxy)-5-[2-(2,4-difluorophenoxy)-5-(ethylsulfonylmethyl)phenyl]-1-methylpyridin-2-one]	< 5.30	> 6.30	> 6.30	> 6.30	
Cn1cc(-c2ccc3c(=O)n(C)cc(-c4nc(CS(C)(=O)=O)ncc4OCC4CC4)c3c2)cn1 [Example 145, 4-[5-(cyclopropylmethoxy)-2-(methylsulfonylmethyl)pyrimidin-4-yl]-2-methyl-6-(1-methylpyrazol-4-yl)isoquinolin-1-one]	< 5.30	5.30 to 6.30	> 6.30	> 6.30	
Cc1cc(-c2cc(OC(C)c3ccccc3)cc(S(C)(=O)=O)c2)cn(C)c1=O (stereo not drawn) [Example 336, 1,3-dimethyl-5-[3-methylsulfonyl-5-(1-phenylethoxy)phenyl]pyridin-2-one]	< 5.30	5.30 to 6.30	> 6.30	> 6.30	
CCS(=O)(=O)Nc1ccc(Oc2ccc(F)cc2F)c(-c2cn(C)c(=O)c3ccncc23)c1 [Example 127, N-[4-(2,4-difluorophenoxy)-3-(2-methyl-1-oxo-2,6-naphthyridin-4-yl)phenyl]ethanesulfonamide]					pIC50 [1, 12]: < 5.30; pIC50 [2, 13]: > 6.30; pIC50 [3, 14]: > 6.30; pIC50 ([4]; class symbols A/B/C): > 6.30
CCCc1ccc(S(C)(=O)=O)cc1-c1ccc(=O)n(C)c1 [Example 313, 1-methyl-5-(5-methylsulfonyl-2-propylphenyl)pyridin-2-one]	< 5.30	< 5.30	5.30 to 6.30	5.30 to 6.30	
Cc1cnn(-c2ccc3c(=O)n(C)cc(-c4cc(S(C)(=O)=O)ccc4OCC4CC4)c3c2)c1 [Example 128, 4-[2-(cyclopropylmethoxy)-5-methylsulfonylphenyl]-2-methyl-6-(4-methylpyrazol-1-yl)isoquinolin-1-one]					pIC50 [1, 12]: < 5.30; pIC50 [2, 13]: > 6.30; pIC50 [3, 14]: > 6.30; pIC50 ([4]; class symbols A/B/C): > 6.30
